Tested on: dry eye induced by scopolamine and extractor hood
Experiment: Dry eye model (scopolamine + desiccation), tear production by Phenol Red test (PRTT)
Type: in vivo, mice
Settings: instillations of 0.1% twice a day
Method: Dry eye is induced in mice by the combination of scopolamine, which blocks the muscarinic cholinergic receptors of lacrimal glands, and by placing the mice in an extractor hood that reduces humidity and increases air flow. The production and volume of aqueous tears, tear clearance, and the corneal barrier function are evaluated before treatment, and then twice a week after treatment. The results are compared between groups of untreated control mice, and groups of mice placed in the extractor hood, treated with the anticholinergic agent scopolamine, treated or not with tresperimus.
Male 129SV/CD-1 mice were used in this study and received three sub-cutaneous injections of 200 μl of scopolamine at 2.5 mg/mL in saline for 21 days. The mice were placed in an extractor hood (humidity <50%) during the whole experiment.
Tear production (PRTT) was measured with cotton threads impregnated with Phenol Red (Zone-quick; Menicon, Japan) applied to the ocular surface in the lateral canthus for 60 seconds. Wetting of the thread was measured in millimeters, using the scale on the cotton thread.

C[C@@H]1C[C@H]2[C@@H]3CCC4=CC(=O)C=C[C@]4(C)[C@@]3(F)[C@@H](O)C[C@]2(C)[C@@]1(O)C(=O)CO [dexamethasone]
Tear volume (Phenol Red test): no significant effect

— US20130190278A1, “Compounds for the Treatment/Prevention of Ocular Inflammatory Diseases” (Laboratoires Fournier SA, priority 2010, published 2013)
